Converted amounts (≈) assume the structure as drawn.
Tested on: up to 32 different microorganisms
Assay: in vitro antibacterial activity (MIC), agar dilution on Brain Heart Infusion (BHI) agar with Steers replicator
Assay type: cell-based
Settings: unit assumed
In short: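 Up to 32 strains were replicator-inoculated (1:100, or 1:10 for Micrococcus and Streptococcus) onto BHI agar plates holding serial compound dilutions and kept 20-24 h at 35-37° C. Plates were read visually against drug-free growth controls, with erythromycin A run alongside; MIC was the lowest concentration giving no growth, slight haze or sparse colonies.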

[1] = Candida albicans CCH 442 (code TT)
[2] = Enterococcus faecism ATCC 8043 (code II)
[3] = Escherichia coli DC-2 (code SS)
[4] = Escherichia coli JUHL (code QQ)
[5] = Haemophilis influenzae DILL AMP R (code WW)
[6] = Micrococcus luteus ATCC 4698 (code PP)
[7] = Micrococcus luteus ATCC 9341 (code OO)
[8] = Mycobacterium smegmatis ATCC 114 (code UU)
[9] = Nocardia Asteroides ATCC9970 (code VV)
[10] = Staphylococcus aureus 1775 (code GG)
[11] = Staphylococcus aureus A5177 (code BB)
[12] = Staphylococcus aureus A-5278 (code CC)
[13] = Staphylococcus aureus ATCC 6538P (code AA)
[14] = Staphylococcus aureus CMX 553 (code FF)
[15] = Staphylococcus aureus CMX 642A (code DD)
[16] = Staphylococcus aureus NCTC10649M (code EE)
[17] = Staphylococcus epidermidis 3519 (code HH)
[18] = Streptococcus Pneumonia 5649 (code ZZA)
[19] = Streptococcus Pneumonia 5979 (code ZZ)
[20] = Streptococcus Pneumonia ATCC6303 (code XX)
[21] = Streptococcus Pneumonia GYR 1171 (code YY)
[22] = Streptococcus agalactiae CMX 508 (code KK)
[23] = Streptococcus bovis A-5169 (code JJ)
[24] = Streptococcus pyogenes 930 (code MM)
[25] = Streptococcus pyogenes EES61 (code LL)
[26] = Streptococcus pyogenes PIU 2548 (code NN)

## CC[C@H]1OC(=O)[C@H](C)C(=O)[C@H](C)[C@@H](O[C@@H]2O[C@H](C)C[C@H](N(C)C)[C@H]2O)[C@@](C)(OCCCc2ccccc2)C[C@@H](C)C(=O)[C@H](C)[C@@H](O)[C@]1(C)O [Example 15, Compound of Formula (VIII): X is O, R is —CH2CH2CH2-Phenyl]
[1]
  MIC: > 100 µg/mL
[2]
  MIC: 1.56 µg/mL
[3]
  MIC: > 100 µg/mL
[4]
  MIC: > 100 µg/mL
Escherichia coli SS (code RR)
  MIC: 6.2 µg/mL
[5]
  MIC: > 64 µg/mL
[6]
  MIC: 3.1 µg/mL
[7]
  MIC: 0.78 µg/mL
[8]
  MIC: 6.2 µg/mL
[9]
  MIC: 1.56 µg/mL
[10]
  MIC: > 100 µg/mL
[11]
  MIC: 6.2 µg/mL
[12]
  MIC: > 100 µg/mL
[13]
  MIC: 6.2 µg/mL
[14]
  MIC: 6.2 µg/mL
[15]
  MIC: 6.2 µg/mL
[16]
  MIC: 6.2 µg/mL
[17]
  MIC: 6.2 µg/mL
[18]
  MIC: 1 µg/mL
[19]
  MIC: 32 µg/mL
[20]
  MIC: 1 µg/mL
[21]
  MIC: 1 µg/mL
[22]
  MIC: 0.2 µg/mL
[23]
  MIC: 0.2 µg/mL
[24]
  MIC: 100 µg/mL
[25]
  MIC: 0.39 µg/mL
[26]
  MIC: 3.1 µg/mL

## CC[C@H]1OC(=O)[C@H](C)C(=O)[C@H](C)[C@@H](O[C@@H]2O[C@H](C)C[C@H](N(C)C)[C@H]2O)[C@@](C)(OCCNOCc2ccccc2)C[C@@H](C)C(=O)[C@H](C)[C@H]2NC(=O)O[C@@]21C [Example 237, Compound of Formula (IX): L is CO, T is NH, R is —CH2CH2NHOCH2(phenyl)]
Organism code AA
  MIC: 0.39 µg/mL
Organism code BB
  MIC: 0.39 µg/mL
Organism code CC
  MIC: > 100 µg/mL
Organism code DD
  MIC: 0.39 µg/mL
Organism code EE
  MIC: 0.39 µg/mL
Organism code FF
  MIC: 0.39 µg/mL
Organism code GG
  MIC: > 100 µg/mL
Organism code HH
  MIC: 0.39 µg/mL
Organism code II
  MIC: 0.1 µg/mL
Organism code JJ
  MIC: 0.05 µg/mL
Organism code KK
  MIC: 0.05 µg/mL
Organism code LL
  MIC: 0.05 µg/mL
Organism code MM
  MIC: > 100 µg/mL
Organism code NN
  MIC: 0.2 µg/mL
Organism code OO
  MIC: 0.05 µg/mL
Organism code PP
  MIC: 0.39 µg/mL
Organism code QQ
  MIC: > 100 µg/mL
Organism code RR
  MIC: 0.39 µg/mL
Organism code SS
  MIC: > 100 µg/mL
Organism code TT
  MIC: > 100 µg/mL
Organism code UU
  MIC: 0.78 µg/mL
Organism code VV
  MIC: 0.39 µg/mL
Organism code WW
  MIC: 16 µg/mL
Organism code XX
  MIC: 0.03 µg/mL
Organism code YY
  MIC: 0.03 µg/mL
Organism code ZZ
  MIC: > 128 µg/mL
Organism code ZZA
  MIC: 0.05 µg/mL

## CCC1OC(=O)C(C)C(=O)C(C)C(OC2OC(C)CC(N(C)C)C2O)C(C)(OCC=Cc2cnc3ncccc3c2)CC(C)C(=O)C(C)C2NC(=O)OC12C (stereo not shown) [Example 202, R is —CH2CH═CH-(1,8-naphthyridin-3-yl)]
Organism code XX
  MIC: 0.03 µg/mL (≈ 0.0391 µM)
Organism code YY
  MIC: 0.03 µg/mL (≈ 0.0391 µM)
Organism code ZZ
  MIC: 32 µg/mL (≈ 41.7 µM)
Organism code ZZA
  MIC: 2 µg/mL (≈ 2.61 µM)

## CC[C@H]1OC(=O)[C@H](C)C(=O)[C@H](C)[C@@H](O[C@@H]2O[C@H](C)C[C@H](N(C)C)[C@H]2O)[C@@](C)(OCCCc2cnc3ccccc3c2)C[C@@H](C)C2=NCCN3C(=O)O[C@@]1(C)[C@H]3[C@H]2C [Example 171, Compound of Formula (VII): A, B, D, and E are H, R is —CH2CH2CH2-(3-quinolyl)]
[1]
  MIC: > 100 µg/mL
[2]
  MIC: 0.05 µg/mL
[3]
  MIC: 25 µg/mL
[4]
  MIC: 25 µg/mL
Escherichia coli SS (code RR)
  MIC: 0.39 µg/mL
[5]
  MIC: 2 µg/mL
[6]
  MIC: 0.39 µg/mL
[7]
  MIC: 0.01 µg/mL
[8]
  MIC: 0.78 µg/mL
[9]
  MIC: 0.05 µg/mL
[10]
  MIC: > 100 µg/mL
[11]
  MIC: 0.05 µg/mL
[12]
  MIC: > 100 µg/mL
[13]
  MIC: 0.1 µg/mL
[14]
  MIC: 0.05 µg/mL
[15]
  MIC: 0.05 µg/mL
[16]
  MIC: 0.02 µg/mL
[17]
  MIC: 0.1 µg/mL
[18]
  MIC: 1 µg/mL
[19]
  MIC: > 16 µg/mL
[20]
  MIC: 0.03 µg/mL
[21]
  MIC: 0.03 µg/mL
[22]
  MIC: 0.02 µg/mL
[23]
  MIC: ≤ 0.005 µg/mL
[24]
  MIC: 25 µg/mL
[25]
  MIC: ≤ 0.005 µg/mL
[26]
  MIC: 0.2 µg/mL

From USRE39591E1, “6-O-substituted ketolides having antibacterial activity” (Abbott Laboratories, priority 1996, dated 2007)
